Assay results from PMC11702115 (BMC Biology, 2025).

Columns and labels:
OfurIR75/OfurIR8a = OfurIR75/OfurIR8a (Ostrinia furnacalis, UniProt A0A0F7QIG0); experiment: two-electrode voltage clamp, Xenopus oocytes; assay type: cell-based; settings: agonist, IR8a co-expressed, 10 uM screen, -80 mV, pH 7.6
HarmOR52 (with HarmOrco) = biological target: T1, HarmOR52 (with HarmOrco) (Helicoverpa armigera, UniProt A0A7T3KAH2); experiment: two-electrode voltage clamp, Xenopus oocytes; assay type: cell-based; settings: agonist; Orco co-expressed; 100 uM screen, dose series; -80 mV, pH 7.6
T1 sequence (A0A7T3KAH2 1-419): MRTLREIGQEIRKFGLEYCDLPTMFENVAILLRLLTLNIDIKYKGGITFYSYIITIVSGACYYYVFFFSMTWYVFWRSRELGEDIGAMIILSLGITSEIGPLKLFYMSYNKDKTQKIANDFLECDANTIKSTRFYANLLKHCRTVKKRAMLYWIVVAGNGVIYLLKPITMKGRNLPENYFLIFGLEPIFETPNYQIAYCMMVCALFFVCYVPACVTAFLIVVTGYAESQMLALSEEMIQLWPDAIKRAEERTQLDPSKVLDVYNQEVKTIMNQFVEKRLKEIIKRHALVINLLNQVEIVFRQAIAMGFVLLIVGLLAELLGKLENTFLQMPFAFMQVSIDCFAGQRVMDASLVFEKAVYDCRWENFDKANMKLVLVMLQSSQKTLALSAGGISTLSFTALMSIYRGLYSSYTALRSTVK

Chain of OfurIR75/OfurIR8a (A0A0F7QIG0 19-626): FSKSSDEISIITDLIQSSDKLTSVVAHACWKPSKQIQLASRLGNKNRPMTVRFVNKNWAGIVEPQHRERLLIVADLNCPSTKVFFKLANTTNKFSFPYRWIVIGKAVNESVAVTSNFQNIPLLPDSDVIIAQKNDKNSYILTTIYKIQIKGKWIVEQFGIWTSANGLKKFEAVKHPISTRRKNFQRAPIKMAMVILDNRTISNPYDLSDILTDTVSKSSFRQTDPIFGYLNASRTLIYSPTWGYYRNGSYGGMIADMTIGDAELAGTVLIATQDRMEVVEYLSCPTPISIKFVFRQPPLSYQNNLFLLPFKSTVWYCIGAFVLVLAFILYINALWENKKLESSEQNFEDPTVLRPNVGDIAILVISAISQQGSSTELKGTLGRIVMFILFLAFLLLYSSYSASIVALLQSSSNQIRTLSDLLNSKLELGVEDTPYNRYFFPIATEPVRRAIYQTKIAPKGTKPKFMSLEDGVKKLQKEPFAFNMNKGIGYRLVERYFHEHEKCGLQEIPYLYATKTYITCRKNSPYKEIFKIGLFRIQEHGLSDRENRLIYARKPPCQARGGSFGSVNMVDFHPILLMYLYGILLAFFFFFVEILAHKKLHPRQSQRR
Chain of OfurIR75/OfurIR8a (A0A0F7QED2 20-902 partner): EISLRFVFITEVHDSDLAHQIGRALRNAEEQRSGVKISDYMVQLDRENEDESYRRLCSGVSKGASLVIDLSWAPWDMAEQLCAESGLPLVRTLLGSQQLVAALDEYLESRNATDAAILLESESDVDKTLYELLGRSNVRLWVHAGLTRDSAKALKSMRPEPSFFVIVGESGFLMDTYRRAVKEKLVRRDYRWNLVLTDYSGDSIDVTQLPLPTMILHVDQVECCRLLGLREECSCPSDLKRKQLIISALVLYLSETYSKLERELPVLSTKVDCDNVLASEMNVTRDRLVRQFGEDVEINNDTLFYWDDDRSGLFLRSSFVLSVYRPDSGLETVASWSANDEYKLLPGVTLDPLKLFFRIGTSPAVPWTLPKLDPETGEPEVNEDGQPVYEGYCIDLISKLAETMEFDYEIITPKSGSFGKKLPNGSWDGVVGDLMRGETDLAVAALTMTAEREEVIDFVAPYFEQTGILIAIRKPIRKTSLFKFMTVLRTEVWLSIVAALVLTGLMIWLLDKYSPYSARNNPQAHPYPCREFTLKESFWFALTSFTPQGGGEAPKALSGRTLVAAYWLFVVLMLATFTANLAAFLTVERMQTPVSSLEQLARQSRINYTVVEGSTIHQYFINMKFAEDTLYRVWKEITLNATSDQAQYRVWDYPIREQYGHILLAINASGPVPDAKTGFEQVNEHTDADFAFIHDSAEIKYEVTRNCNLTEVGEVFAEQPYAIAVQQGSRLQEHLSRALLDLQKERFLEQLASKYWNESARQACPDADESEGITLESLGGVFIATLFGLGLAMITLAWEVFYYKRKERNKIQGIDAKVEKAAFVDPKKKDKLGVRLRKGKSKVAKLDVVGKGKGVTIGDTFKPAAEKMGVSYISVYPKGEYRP

Row | SMILES | two-electrode voltage clamp, Xenopus oocytes (OfurIR75/OfurIR8a) | two-electrode voltage clamp, Xenopus oocytes (OfurIR75/OfurIR8a; dose series) | two-electrode voltage clamp, Xenopus oocytes (HarmOR52 (with HarmOrco))
1 | CCCCCCC(=O)O [heptanoic acid] | Weaker responses were elicited by heptanoic acid and octanoic acid | – | –
2 | CCCCCC(=O)O [hexanoic acid] | – | OfurIR75/OfurIR8a responded strongly with similar magnitudes to pentanoic acid and hexanoic acid | –
3 | CC(C)CCO [isoamyl alcohol] | – | – | receptors from this clade exhibited similar response profiles, with isoamyl alcohol as the primary ligand
4 | CCCCCCCC(=O)O [octanoic acid] | Weaker responses were elicited by heptanoic acid and octanoic acid | – | –
5 | CCCCC(=O)O [pentanoic acid] | – | OfurIR75/OfurIR8a responded strongly with similar magnitudes to pentanoic acid and hexanoic acid | –
6 | CCCCCO [pentanol] | – | – | dose-dependent, with a higher sensitivity to isoamyl alcohol compared to pentanol
